The text below walks through data of patent US6297230A, “Cyanoaziridines for treating cancer” (priority 2000, dated 2001).

Read-outs that look alike come from different tables or passages of the source.

Data set [1] concerns OVCAR-3 ovarian carcinoma cells. The conditions noted are these: cited from earlier work.
Data set [2] deals with 8226/I-R myeloma cells. The data set is described as follows: MTT growth inhibition, imexon-resistant 8226 myeloma cells. The format is cell-based, human. The following applies: for IC50: Homo sapiens, read-out: IC50; for Fold Resistance (IC50 resistant cells/IC50 sensitive cells): Table 4, 8226/I-R vs 8226/S. As for the experimental part: (§1) Microculture Tetrazolium (MTT) Assay for Tumor Cells
(§2) Tumors are disaggregated into single cell suspensions using mechanical, hypoosmotic, and/or enzymatic (trypsin) methods. The cells are plated at a concentration of 3-5×10^4 per […] well into plastic 96-well plates. Growth medium containing 5-10% (vol/vol) heat-inactivated fetal bovine serum and penicillin/streptomycin (both […]) are added prior to incubation at 37° C. for 6 days. Afterwards the medium containing the drug is removed, the cells are centrifuged in fresh medium or phosphate-buffered saline (pH 7.4). A tetrazolium dye, […]-2,5-diphenyl tetrazolium (MTT), is then added. (Mossman, T., J Immunol 65:55-63, 1983.) This dye forms a colored formazan product upon activation by mitochondrial reductases in viable cells. Typically, the formazan product is solubilized in acid-propanol or DMSO. The intensity of the color is proportional to viable cell numbers and this is quantitated by spectrophotometric absorbance at 570 nm on a micro ELISA plate reader. The results are calibrated in % control absorbance from untreated tumor cells. (Alley, et al., Cancer Res 48:589-601, 1988.)
(§3) The following unpublished studies were performed in vitro to develop and characterize a human myeloma cell line with resistance to imexon-induced cytotoxicity. The original (parental) 8226 cell line was developed by Matsuoka, et al. (Matsuoka, et al., Proc Soc Exp Biol Med 125:1246-1250, 1967). It is a lymphoblastoid cell line which stains for lambda light immunoglobulin production. It grows in vitro in suspension culture (non-adherent) and forms tumors when injected into SCID mice. (Skehan, et al., J Natl Cancer Inst 82:1107-1112, 1990.)
(§4) One exciting feature of our novel compounds is, that they work on imexon-resistant cells. An imexon-resistant 8226 myeloma cell line was selected by continuously exposing cells to gradually increasing concentrations of imexon up to 3.25 mg/mL. This cell line has slightly longer cell doubling time than 8226 sensitive cells (24 vs 20 hours). […] The dose response curve for imexon continuous exposure was determined using MTT assay. Each data point represents the mean of three experiments performed in 8 replicates.
(§5) We compared IC50 concentrations and there is a 4-fold resistance observed for the 8226/I-R cell line when the cells were continuously exposed to imexon for […] at 37° C. The degree of resistance was relatively unstable in the absence of the drug, with the resistant cells losing substantial resistance when maintained in imexon-free medium for 20 weeks (FIG. 2).
(§6) IC50 was measured by MTT assay. IC50 refer to the concentration by drug that results in 50% growth inhibition. A minimum of 2 assays were performed for each drug following 250 mg/mL imexon is equivalent to 6.5 cGy radiation in sensitive cells.
(§7) Using the colorimetric microculture tetrazolium (MTT) assay, imexon and 25-related analogs were studied for tumor growth inhibition in vitro. Imexon-induced DNA single strand breaks were assessed by alkaline elution. Cells were exposed to imexon for 1 hour prior to start of experiment. The fraction of ^14 C-labeled DNA retained on the filter is plotted against the time of elution. The cells included parental 8226 myeloma cells and the 8226 imexon-resistant cells exposed to drug (imexon or analog) continuously for 10 days at 37° C. At the end of the exposure period, the cells were analyzed for viability using the formazan-forming tetrazolium dye (MTT) assay.

In data set [3] the test system is WiDr MITOX cells. The following applies: cited from earlier work.
Data set [4] relates to 8226/S myeloma cells. The data set is described as follows: MTT growth inhibition, parental 8226 myeloma cells. The format is cell-based, human. The following applies: Homo sapiens, read-out: IC50. As for the experimental part:
as §1, §2, §3, §4, §5, §6, §7

The test system of data set [5] is MCF-7/ADR cells. The following applies: cited from earlier work.
The test system of data set [6] is MCF-7/MITOX cells. The conditions noted are these: cited from earlier work.
The test system of data set [7] is L-1210 MDR leukemia cells. The conditions noted are these: cited from earlier work.
For data set [8], the system named is human prostate cancer tumors. The experiment in a line: Activity in prostate cancer in SCID mouse model. The format is in vivo, human tumors in SCID mice. The following applies: Table 1B.
Data set [9] deals with advanced solid tumors in cancer patients. The conditions noted are these: cited from earlier work; for Clinical response: Phase I clinical trials.
The conditions of data set [10]: background statement; cited from earlier work.
In data set [11] the test system is human lymphoma, melanoma, and prostate cancer cell lines. The conditions noted are these: cited from earlier work.
In data set [12] the test system is DNA of 8226 myeloma cells. The experiment in a line: Imexon-induced DNA single strand breaks by alkaline elution. The format is cell-based, human. The following applies: for DNA single strand breaks: 8226 cells, 10-500 μg/mL. As for the experimental part: as §7
These strand breaks are noted by an enhanced rate of ^14 C-DNA elution through the filters after a one-hour exposure to imexon (10-500 μg/mL) at 30° C. At high imexon concentrations of≥100 μg/mL, over 75% of the radiolabeled DNA is eluted through the filters over the test period. By comparison, control cell DNA is highly retained (>95%) on the filter over the same 24-hour elution period.

Data set [13] deals with transplanted tumors. The following applies: rodents; cited from earlier work.
For data set [14], the system named is multiple myeloma (clonogenic assay). The conditions noted are these: cited from earlier work.
Data set [15] in a line: Myelosuppression. The conditions noted are these: in vivo.
For data set [16] the following is noted: cited from earlier work.
The test system of data set [17] is AIDS-related lymphoma / lymphoma cells. The data set is described as follows: Activity against lymphoma cells in vitro. The format is cell-based. The conditions noted are these: Table 1B.
For data set [18], the system named is mast cell tumors. The conditions noted are these: cited from earlier work.
Data set [19] in a line: Oral activity in mice. The format is in vivo.
The subject of data set [20] is human tumor cell lines. The conditions noted are these: in culture; cited from earlier work.
A short description of data set [21]: Tolerability and activity on prolonged dosing in tumor-bearing mice and dogs. The format is in vivo. The following applies: suggested by prior studies in mice and dogs.
The test system of data set [22] is MCF-7/D40 cells. The following applies: MCF-7/DOX40; cited from earlier work.

As to `COc1cccc2c1C(=O)c1c(O)c3c(c(O)c1C2=O)C[C@@](O)(C(=O)CO)C[C@@H]3O[C@H]1C[C@H](N)[C@H](O)[C@H](C)O1` [Doxorubicin], the “Resistance of OVCAR-3” value in [1] was “resistant in vitro to clinically relevant concentrations”. In addition, in data set [2] (8226 imexon-resistant cells, MTT), the “Cross-resistance of imexon-resistant cells” value is “remains sensitive”. Besides, the IC50 in data set [2] (8226/I-R, MTT) was 0.00032 µM; in data set [4] (8226/S, MTT), 0.00043 µM. Further, the “Fold Resistance (IC50 resistant cells/IC50 sensitive cells)” value in [2] is recorded as 0.79. Further, the “Fold resistance of WiDr MITOX cells” value in data set [3] was 8 fold. For the same compound, in data set [5], the “Decrease in sensitivity to doxorubicin” value is listed as 192 fold. For the same compound, the “Resistance of MCF-7/MITOX” value in data set [6] is “only partially resistant”. In addition, the “Cross-resistance of L-1210 MDR” value in data set [7] is “cross-resistant”.

Consider `N=C1NC(=O)N2CC12` (stereo not shown) [AMP 400, 4-imino-1,3-diazabicyclo[3.1.0]hexan-2-one], for which the “Activity in prostate cancer” value in data set [8] is recorded as “active in”. Besides, the “Clinical response” value in data set [9] (listed as Imexon) is “produced objective responses or stabilized neoplastic diseases in cancer patients”; in [9] (listed as parent compound), “parent compound”. Besides, the “Additional patients with disease stabilization” value in [9] (advanced tumors) was 8 patients. In data set [9] (advanced tumors), the “Duration of disease stabilization” value is reported as 4-24 months. Also, the “Objective responses, evaluable patients” value in [9] (breast cancer), in data set [9] (lung cancer) and in [9] (melanoma) was 1/7 each time. Moreover, the results for the “Duration of complete disappearance of measurable disease” value in data set [9] (lung cancer) and in data set [9] (melanoma) were 33 months and 42 months, respectively. For the same compound, the “Stable disease, number of patients” value in data set [9] (one NSCLC, four breast cancer, one liver cancer) is 6 patients. The “Duration of complete remission” value in data set [9] (one patient, metastatic NSCLC) is “over 14 years”. The “Myelosuppression” value in data set [10] was “not myelosuppressive”; in data set [15], “has not demonstrated myelosuppressive toxicity”. For the same compound, the “Activity against human tumor cell lines in SCID mice” value in data set [11] was “active against human lymphoma, melanoma, and prostate cancer cell lines in SCID mice”. Moreover, the IC50 in data set [2] (8226/I-R, MTT) is 120 µM; in [2] (Table 5, imexon-resistant 8226), 8.5 mg/L; in [4] (8226/S, MTT) it was 27 µM; in data set [4] (Table 5, Sensitive (parental) 8226), 1 mg/L. Further, the “Fold Resistance (IC50 resistant cells/IC50 sensitive cells)” value in data set [2] is on record as 4.44. Besides, the “Fold Resistance of IC50 R/IC50 's” value in data set [2] (Table 5, imexon-resistant vs sensitive 8226) came to 4.5. The compound also came in with a Fold resistance in [2] (continuous exposure for 5 days at 37° C) of 4 fold. The “DNA single strand breaks” value is “induced single strand breaks in both 8226 imexon-sensitive and resistant cells” in [12] (one-hour exposure, listed as Imexon); “induces concentration-dependent single-stranded breaks in tumor cell DNA” in data set [12] (one-hour exposure, listed as imexon). In data set [12] (given dose of imexon, p<0.05), the “DNA strand breaks, resistant vs sensitive cells” value is given as “fewer strand breaks in imexon-resistant cells than in sensitive cells”. Moreover, the “Radiolabeled DNA eluted over the test period” value in data set [12] (imexon ≥100 μg/mL, one-hour exposure) is listed as “over 75%”. The “Radiation equivalent of 250 mg/mL imexon” value in data set [12] (sensitive cells, 250 μg/mL imexon) came to 6.5 cGy. The “Activity against transplanted tumors” value in data set [13] is listed as “active against a variety of transplanted tumors in rodents”. Further, the “Cytotoxicity to multiple myeloma” value in data set [14] is listed as “selectively cytotoxic to multiple myeloma in the clonogenic assay”. For the same compound, the “Tolerability” value in data set [16] (Phase I, Europe, 1985) is given as “well tolerated”. Moreover, in [16] (patients), the “Nausea (mild, transient)” value is reported as 13%. For the same compound, the Vomiting in data set [16] (patients) is reported as 23%. Further, the “Activity in lymphoma in vitro” value in data set [17] is “active in vitro”. For the same compound, the “Objective responses in dogs” value in data set [18] is given as “Objective responses were observed in dogs with mast cell tumors”. Also, the “Oral activity” value in [19] is reported as “not active orally in mice”. Moreover, the “Activity against human tumor cell lines” value in data set [20] was “active against a variety of human tumor cell lines in culture”. The Maximally-tolerated human dose entry in data set [21] is “approximately 500 mg/m^2 /day”.

Consider `COc1ccc(CCN(C)CCCC(C#N)(c2ccc(OC)c(OC)c2)C(C)C)cc1OC` (stereo not shown) [verapamil], for which the results for the “Reversal of resistance” value in data set [22], in data set [6] and in data set [7] were “sensitized (resistance reversed)”, “resistance is not modulated (reversed)” and “resistance can be reversed”, respectively.
